Test results from PubChem BioAssay AID1259408 (Genetic Toxicology Data Bank (GENE-TOX), 2018).
Calls of active or inactive are those of the source. How the calls were made is not given here.

Tested on: GENE-TOX genotoxicity assays, various organisms and cells
Test: GENE-TOX mutagenicity studies
Conditions: for call: Assay Type: In vivo carcinogenicity studies
[1] = Species/Cell Type: Salmonella typhimurium (one or more of the five standard strains: TA98, TA100, TA1535, TA1537, and TA1538), Assay Type: Histidine reverse gene mutation, Ames assay, Assay Code: SAL+, Evaluation Type: Evaluation A (Pre-1980)
[2] = Species/Cell Type: Nonhuman, Assay Type: Sister-chromatid exchange (SCE) in vivo, Assay Code: SC3T, Evaluation Type: Evaluation B (Post-1980)
[3] = Species/Cell Type: Bacillus subtilis (H17 vs M45), Assay Type: Rec-assay, spot test, DNA effects (bacterial DNA repair), Assay Code: REWT, Evaluation Type: Evaluation A (Pre-1980)
[4] = Species/Cell Type: Drosophila melanogaster, Assay Type: Sex-linked recessive lethal gene mutation, Assay Code: SRLT, Evaluation Type: Evaluation A (Pre-1980)
[5] = Species/Cell Type: Salmonella typhimurium (one or more of the five standard strains: TA98, TA100, TA1535, TA1537, and TA1538), Assay Type: Histidine reverse gene mutation, Ames assay, Assay Code: SAL+*, Activation: With metabolic activation, Evaluation Type: Evaluation A (Pre-1980)
[6] = Species/Cell Type: Bacillus subtilis (H17 vs M45T), Assay Type: Rec-assay, spot test, DNA effects (bacterial DNA repair), Assay Code: REXT, Evaluation Type: Evaluation A (Pre-1980)
[7] = Species/Cell Type: Mouse, Sex: Male, Assay Type: Sperm morphology, Assay Code: SPI-, Evaluation Type: Evaluation A (Pre-1980)
[8] = Species/Cell Type: Nonhuman, Assay Code: CCG+, Evaluation Type: Evaluation A (Pre-1980)
[9] = Species/Cell Type: Saccharomyces cerevisiae, Assay Type: Mitotic recombination or gene conversion, Assay Code: YEC-, Evaluation Type: Evaluation A (Pre-1980)

CC(=O)Nc1ccc(N=NN(C)C)cc1
mutagenic call (Species/Cell Type: Drosophila melanogaster, Assay Type: Sex-linked recessive lethal gene mutation, Assay Code: SRL+, Evaluation Type: Evaluation A (Pre-1980)): active; positive
mutagenic call (Species/Cell Type: Saccharomyces cerevisiae, Assay Type: Mitotic recombination or gene conversion, Assay Code: YEH+/-*, Activation: With metabolic activation, Evaluation Type: Evaluation A (Pre-1980)): inactive; positive without activation, negative with activation

O=NN1CCC(O)C1 (stereo not given)
mutagenic call [1]: active; positive

Cc1ccc(S(=O)(=O)NC(=O)N[C@H]2[C@H]3CC[C@@](C)([C@H]2O)C3(C)C)cc1
mutagenic call [2]: no conclusion

O=S(=O)(O)c1cc(S(=O)(=O)O)c2c(N=Nc3ccccc3)c(O)ccc2c1
mutagenic call [3]: no conclusion

CCCCCCCCCCCCCC(=O)N(C)N=O
mutagenic call (Species/Cell Type: Saccharomyces cerevisiae, Assay Type: Reverse gene mutation, Assay Code: YER+, Evaluation Type: Evaluation A (Pre-1980)): active; positive

CC1CCCCN1N=O (stereo not given)
mutagenic call (Species/Cell Type: Drosophila melanogaster, Assay Type: Aneuploidy, partial sex chromosome loss, chromosome aberrations, Assay Code: DAPT, Evaluation Type: Evaluation A (Pre-1980)): no conclusion
mutagenic call (Species/Cell Type: Drosophila melanogaster, Assay Type: Aneuploidy, whole sex chromosome loss, chromosome aberrations, Assay Code: DAC-M, Evaluation Type: Evaluation A (Pre-1980)): inactive; negative
mutagenic call [4]: no conclusion
mutagenic call (Species/Cell Type: Saccharomyces cerevisiae, Assay Type: Forward gene mutation, Assay Code: YEF+*, Activation: With metabolic activation, Evaluation Type: Evaluation A (Pre-1980)): active; positive
mutagenic call (Species/Cell Type: Saccharomyces cerevisiae, Assay Type: Reverse gene mutation, Assay Code: YER+*, Activation: With metabolic activation, Evaluation Type: Evaluation A (Pre-1980)): active; positive
mutagenic call [5]: active; positive

CN(C)c1ccc(N=Nc2ccccc2)cc1
mutagenic call [6]: no conclusion
mutagenic call [4]: no conclusion
mutagenic call (Species/Cell Type: Escherichia coli polA (W3110 vs P3478), Assay Type: Rec-assay, DNA effects (bacterial DNA repair), Assay Code: RE2-, Evaluation Type: Evaluation A (Pre-1980)): inactive; negative
mutagenic call (Species/Cell Type: Escherichia coli polA (W3119 vs P3478), Assay Type: Rec-assay, DNA effects (bacterial DNA repair), Assay Code: RE1T, Evaluation Type: Evaluation A (Pre-1980)): no conclusion
mutagenic call (Species/Cell Type: Fischer rat embryo (RLV/1706) cells, Assay Type: Cell transformation, viral enhanced, Assay Code: CTR+, Evaluation Type: Evaluation A (Pre-1980)): active; positive
mutagenic call (Species/Cell Type: Human diploid fibroblasts, Assay Type: Unscheduled DNA synthesis (UDS) in vitro, DNA effects, Assay Code: UDHT, Evaluation Type: Evaluation A (Pre-1980)): no conclusion
mutagenic call (Species/Cell Type: Mammalian polychromatic erythrocytes, Assay Type: Micronucleus test, chromosome aberrations, Assay Code: MNT+, Evaluation Type: Evaluation A (Pre-1980)): active; positive
mutagenic call (Species/Cell Type: Mouse (BALB/c-3T3) cells, Assay Type: Cell transformation, Assay Code: CTB-, Evaluation Type: Evaluation A (Pre-1980)): inactive; negative
mutagenic call [7]: inactive; negative
call [8]: active; positive
mutagenic call (Species/Cell Type: Nonhuman, Assay Type: Sister-chromatid exchange (SCE) in vitro, Assay Code: SC2+D*, Activation: With metabolic activation, Dose Response: With dose response, Evaluation Type: Evaluation B (Post-1980)): active; positive
mutagenic call (Species/Cell Type: Nonhuman, Assay Type: Sister-chromatid exchange (SCE) in vivo, Assay Code: SC3+, Evaluation Type: Evaluation B (Post-1980)): active; positive
mutagenic call (Species/Cell Type: Saccharomyces cerevisiae, Assay Type: Mitotic recombination or gene conversion, Assay Code: YEH-, Evaluation Type: Evaluation A (Pre-1980)): inactive; negative
mutagenic call [5]: active; positive
mutagenic call (Species/Cell Type: Salmonella typhimurium, Assay Type: Forward and reverse gene mutation, body fluid assay, Assay Code: BFU+, Evaluation Type: Evaluation A (Pre-1980)): active; positive
mutagenic call (Species/Cell Type: Syrian hamster embryo (SHE) cells, Assay Type: Cell transformation, clonal assay, Assay Code: CTCT, Evaluation Type: Evaluation A (Pre-1980)): no conclusion

O=NN(CCCO)CCCCO
mutagenic call (Species/Cell Type: Salmonella typhimurium (one or more of the five standard strains: TA98, TA100, TA1535, TA1537, and TA1538), Assay Type: Histidine reverse gene mutation, Ames assay, Assay Code: SALT, Evaluation Type: Evaluation A (Pre-1980)): no conclusion

CN(C)N
mutagenic call (Species/Cell Type: Human diploid fibroblasts, Assay Type: Unscheduled DNA synthesis (UDS) in vitro, DNA effects, Assay Code: UDH-*, Activation: With metabolic activation, Evaluation Type: Evaluation A (Pre-1980)): inactive; negative
mutagenic call (Species/Cell Type: Mammalian polychromatic erythrocytes, Assay Type: Micronucleus test, chromosome aberrations, Assay Code: MNTT, Evaluation Type: Evaluation A (Pre-1980)): no conclusion
mutagenic call (Species/Cell Type: Mouse lymphoma (L5178Y) cells, Assay Type: Forward gene mutation at the thymidine kinase (TK) locus, chromosome aberrations, Assay Code: L51-*, Activation: With metabolic activation, Evaluation Type: Evaluation A (Pre-1980)): inactive; negative
mutagenic call [7]: inactive; negative
call [8]: active; positive
mutagenic call (Species/Cell Type: Rodents, Sex: Male, Assay Type: Dominant lethal test, Assay Code: DLT-, Evaluation Type: Evaluation A (Pre-1980)): inactive; negative
mutagenic call [9]: inactive; negative
mutagenic call [5]: active; positive
mutagenic call (Species/Cell Type: Syrian hamster embryo (SA7/SHE) cells, Assay Type: Cell transformation, viral enhanced, Assay Code: CT7+, Evaluation Type: Evaluation A (Pre-1980)): active; positive

Nc1ccc2cc3ccc(N)cc3nc2c1
mutagenic call (Species/Cell Type: Drosophila melanogaster, Assay Type: Aneuploidy, sex chromosome gain, chromosome aberrations, Assay Code: DAGT, Evaluation Type: Evaluation A (Pre-1980)): no conclusion
mutagenic call (Species/Cell Type: Drosophila melanogaster, Assay Type: Aneuploidy, whole sex chromosome loss, chromosome aberrations, Assay Code: DAC+F, Evaluation Type: Evaluation A (Pre-1980)): active; positive
mutagenic call (Species/Cell Type: Escherichia coli polA (W3119 vs P3478), Assay Type: Rec-assay, DNA effects (bacterial DNA repair), Assay Code: RE1+, Evaluation Type: Evaluation A (Pre-1980)): active; positive
mutagenic call (Species/Cell Type: Human lymphocytes, Assay Type: Sister-chromatid exchange (SCE) in vitro, Assay Code: SCL+, Evaluation Type: Evaluation B (Post-1980)): active; positive
mutagenic call (Species/Cell Type: Human, Assay Type: Sister-chromatid exchange (SCE) in vitro, Assay Code: SC1+, Evaluation Type: Evaluation B (Post-1980)): active; positive
mutagenic call (Species/Cell Type: Mouse lymphoma (L5178Y) cells, Assay Type: Forward gene mutation at the thymidine kinase (TK) locus, chromosome aberrations, Assay Code: L51+, Evaluation Type: Evaluation A (Pre-1980)): active; positive
call (Species/Cell Type: Nonhuman, Assay Code: CCGT, Evaluation Type: Evaluation A (Pre-1980)): no conclusion
mutagenic call (Species/Cell Type: Nonhuman, Assay Type: Sister-chromatid exchange (SCE) in vitro, Assay Code: SC2+, Evaluation Type: Evaluation B (Post-1980)): active; positive
mutagenic call (Species/Cell Type: Nonhuman, Assay Type: Sister-chromatid exchange (SCE) in vitro, Assay Code: SC2+D, Dose Response: With dose response, Evaluation Type: Evaluation A (Pre-1980)): active; positive
mutagenic call (Species/Cell Type: Nonhuman, Assay Type: Sister-chromatid exchange (SCE) in vivo, Assay Code: SC3-, Evaluation Type: Evaluation A (Pre-1980)): inactive; negative
mutagenic call [2]: no conclusion
mutagenic call (Species/Cell Type: Saccharomyces cerevisiae, Assay Type: Mitotic recombination or gene conversion, Assay Code: YEC+, Evaluation Type: Evaluation A (Pre-1980)): active; positive
mutagenic call (Species/Cell Type: Saccharomyces cerevisiae, Assay Type: Mitotic recombination or gene conversion, Assay Code: YECT, Evaluation Type: Evaluation A (Pre-1980)): no conclusion
mutagenic call [1]: active; positive

CCCCC/C=C/C=C/C(=O)NCC(C)C
mutagenic call (Species/Cell Type: Allium cepa, Assay Type: Chromosome aberrations, Assay Code: ALC+, Evaluation Type: Evaluation A (Pre-1980)): active; positive

NCCCC[C@H](N)C(=O)O
mutagenic call (Species/Cell Type: Human, Sex: Male, Assay Type: Sperm morphology, Assay Code: SPH-, Evaluation Type: Evaluation A (Pre-1980)): inactive; negative

O=S(=O)(O)c1cc(S(=O)(=O)O)c2c(N=Nc3ccc(S(=O)(=O)O)c4ccccc34)c(O)ccc2c1
mutagenic call [3]: no conclusion
mutagenic call [6]: no conclusion
mutagenic call [9]: inactive; negative

O[C@@H]1C=Cc2c(ccc3cc4ccccc4cc23)[C@H]1O
mutagenic call (Species/Cell Type: Chinese hamster lung (V79) cells, Assay Type: Forward gene mutation at the HPRT or ouabain locus, Assay Code: V79+, Evaluation Type: Evaluation A (Pre-1980)): active; positive
call (Species/Cell Type: Nonhuman, Assay Code: CCG+L, Evaluation Type: Evaluation A (Pre-1980)): active; positive
mutagenic call (Species/Cell Type: Nonhuman, Assay Type: Sister-chromatid exchange (SCE) in vitro, Assay Code: SC2+D, Dose Response: With dose response, Evaluation Type: Evaluation B (Post-1980)): active; positive
mutagenic call [5]: active; positive

Nc1ccc2c(c1)Cc1cc(N)ccc1-2
mutagenic call [1]: active; positive

CC(=O)c1c(=O)cc(C)oc1=O
mutagenic call (Species/Cell Type: Nonhuman, Assay Type: Sister-chromatid exchange (SCE) in vitro, Assay Code: SC2-, Evaluation Type: Evaluation A (Pre-1980)): inactive; negative
mutagenic call (Species/Cell Type: Nonhuman, Assay Type: Sister-chromatid exchange (SCE) in vitro, Assay Code: SC2T, Evaluation Type: Evaluation B (Post-1980)): no conclusion

Cc1cc(Cl)cc2c1C(=O)/C(=C1\Sc3cc(Cl)cc(C)c3C1=O)S2
mutagenic call (Species/Cell Type: Salmonella typhimurium (one or more of the five standard strains: TA98, TA100, TA1535, TA1537, and TA1538), Assay Type: Histidine reverse gene mutation, Ames assay, Assay Code: SAL-, Evaluation Type: Evaluation A (Pre-1980)): inactive; negative
